Test results reported in US12152038B2, “Vasopressin receptor antagonists and products and methods related thereto” (Neumora Therapeutics, Inc., priority 2017, dated 2024).

Assays:
[1] = target: T1, human Arginine Vasopressin Receptor V2 (AVPR2) (Homo sapiens, UniProt P30518); assay: Vasopressin V2 receptor antagonist assay (TR-FRET cAMP, 1321N1 cells); assay type: cell-based
T1 construct: host or cells: 1321N1 (cAMPZen V2 assay ready frozen cells)

[2] = target: T2, human Arginine Vasopressin Receptor 1a (AVPR1a) (Homo sapiens, UniProt P37288); assay: Vasopressin V1a receptor antagonist assay (FLIPR calcium, CHO-AVPR1a cells); assay type: cell-based
T2 construct: expressed in transfected cells; host or cells: CHO (CHO-AVPR1a, kept under G418 selection)
Outline: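 CHO cells expressing human AVPR1a were loaded with Calcium-6 dye and preincubated with compound for 15 min at 37° C. Cells were then challenged with AVP at its daily-determined EC80, and FLIPR fluorescence was read. Compounds were tested in duplicate as 10-point 1:3 dilutions from a top final concentration of 3 μM.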

T2 sequence (P37288 whole entry): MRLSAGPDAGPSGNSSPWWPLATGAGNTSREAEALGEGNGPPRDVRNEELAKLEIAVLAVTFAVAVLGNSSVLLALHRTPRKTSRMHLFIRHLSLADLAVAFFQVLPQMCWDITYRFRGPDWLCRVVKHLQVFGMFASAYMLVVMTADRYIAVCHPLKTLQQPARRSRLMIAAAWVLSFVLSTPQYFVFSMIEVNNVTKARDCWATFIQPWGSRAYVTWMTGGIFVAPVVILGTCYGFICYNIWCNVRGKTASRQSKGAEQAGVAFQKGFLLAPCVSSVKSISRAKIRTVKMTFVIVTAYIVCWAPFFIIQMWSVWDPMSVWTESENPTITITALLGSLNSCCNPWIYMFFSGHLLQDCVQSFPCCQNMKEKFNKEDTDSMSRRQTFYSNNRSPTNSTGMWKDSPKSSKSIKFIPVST
T1 sequence (P30518 whole entry): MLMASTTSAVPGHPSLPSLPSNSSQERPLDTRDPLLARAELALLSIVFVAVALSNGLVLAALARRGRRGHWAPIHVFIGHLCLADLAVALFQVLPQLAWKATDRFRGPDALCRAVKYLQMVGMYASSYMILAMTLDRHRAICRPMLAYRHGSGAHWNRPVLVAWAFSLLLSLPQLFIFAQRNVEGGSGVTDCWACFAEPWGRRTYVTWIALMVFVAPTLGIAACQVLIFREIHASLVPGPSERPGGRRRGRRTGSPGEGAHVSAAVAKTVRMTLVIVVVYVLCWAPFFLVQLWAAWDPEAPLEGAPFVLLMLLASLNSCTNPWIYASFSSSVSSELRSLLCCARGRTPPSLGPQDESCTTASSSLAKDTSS

IC50 [1]	IC50 [2]	Compound
< 100 nM	< 100 nM	CCC1COc2cc(Cl)ccc2N1C(=O)N1CC2(C1)CN(c1ccc(F)cn1)C2 (single isomer, unassigned) [1-55-B]
< 100 nM	< 100 nM	CC1COc2cc(Cl)ccc2N1C(=O)N1CC2(C1)CN(c1ncccc1F)C2 (single isomer, unassigned) [1-57-A]
< 100 nM	< 100 nM	CC1COc2cc(Cl)ccc2N1C(=O)N1CC2(C1)CN(c1cnccn1)C2 (single isomer, unassigned) [1-58-B]
100 to 500 nM	< 100 nM	COc1ccc2c(c1)OCC(C)N2C(=O)N1CC2(C1)CN(c1ccc(F)cn1)C2 (single isomer, unassigned) [1-59-B]
< 100 nM	< 100 nM	CC1COc2cc(Cl)ccc2N1C(=O)N1CC2(C1)CN(c1ccccn1)C2 (single isomer, unassigned) [1-60-B]
≥ 1000 nM	< 100 nM	CC1COc2cc(F)ccc2N1C(=O)N1CC2(C1)CN(c1cnccn1)C2 (single isomer, unassigned) [1-65-B]
500 to 1000 nM	< 100 nM	CC1COc2cc(F)ccc2N1C(=O)N1CC2(C1)CN(c1ccccn1)C2 (single isomer, unassigned) [1-66-B]
100 to 500 nM	< 100 nM	CC1COc2cc(F)ccc2N1C(=O)N1CC2(C1)CN(c1ncccc1F)C2 (single isomer, unassigned) [1-67-A]
≥ 1000 nM	< 100 nM	CC1COc2cc(Cl)ccc2N1C(=O)N1CC2(C1)CN(c1ccc(F)cn1)C2 (single isomer, unassigned) [1-73-A]
< 100 nM	< 100 nM	CC1COc2cc(Cl)ccc2N1C(=O)N1CC2(C1)CN(c1ccc(F)cn1)C2 (single isomer, unassigned) [1-73-B]
≥ 1000 nM		O=C(N1CC2(C1)CN(c1ccc(F)cn1)C2)N1CCC(O)c2cc(Cl)ccc21 (single isomer, unassigned) [13-1-B]
100 to 500 nM		CC1COc2cc(Cl)ccc2N1C(=O)N1CC2(C1)CN(c1ncc(F)cn1)C2 (single isomer, unassigned) [18-2-B]
< 100 nM	< 100 nM	Cc1cnc(N2CC3(CN(C(=O)N4c5ccc(Cl)cc5OCC4C)C3)C2)nc1 (single isomer, unassigned) [20-13-B]
500 to 1000 nM	< 100 nM	CC1COc2cc(Cl)ccc2N1C(=O)N1CC2(C1)CN(c1cc(=O)n(C)cn1)C2 (single isomer, unassigned) [20-14-B]
< 100 nM	< 100 nM	CC1COc2cc(Cl)ccc2N1C(=O)N1CC2(C1)CN(c1nn(C)c3ncccc13)C2 (single isomer, unassigned) [20-15-B]
100 to 500 nM	< 100 nM	Cc1cccc(N2CC3(CN(C(=O)N4CCOc5cc(Cl)ccc54)C3)C2)n1 [1-3]
≥ 1000 nM	< 100 nM	O=C(N1CC2(C1)CN(c1cnc(F)cn1)C2)N1CCOc2cc(Cl)ccc21 [1-18]
≥ 1000 nM	< 100 nM	Cc1cnc(N2CC3(CN(C(=O)N4CCOc5cc(Cl)ccc54)C3)C2)cn1 [1-20]
≥ 1000 nM	< 100 nM	Cc1cncc(N2CC3(CN(C(=O)N4CCOc5cc(Cl)ccc54)C3)C2)n1 [1-22]
500 to 1000 nM	< 100 nM	Cc1nc(N2CC3(CN(C(=O)N4CCOc5cc(Cl)ccc54)C3)C2)ccc1F [1-30]
≥ 1000 nM	< 100 nM	N#Cc1cccc(N2CC3(CN(C(=O)N4CCOc5cc(Cl)ccc54)C3)C2)n1 [1-39]
≥ 1000 nM	< 100 nM	COc1nccnc1N1CC2(CN(C(=O)N3CCOc4cc(Cl)ccc43)C2)C1 [1-43]

IC50 [1]	IC50 [2]	Compound
≥ 1000 nM	< 100 nM	Cc1cc(F)nc(N2CC3(CN(C(=O)N4CCOc5cc(Cl)ccc54)C3)C2)c1 [1-45]
≥ 1000 nM	< 100 nM	O=C(N1CC2(C1)CN(c1ccc(F)c(F)n1)C2)N1CCOc2cc(Cl)ccc21 [1-49]
≥ 1000 nM	< 100 nM	O=C(N1CC2(C1)CN(c1cc(F)cc(F)n1)C2)N1CCOc2cc(Cl)ccc21 [1-51]
≥ 1000 nM	< 100 nM	N#Cc1ccnc(N2CC3(CN(C(=O)N4CCOc5cc(Cl)ccc54)C3)C2)c1 [1-53]
100 to 500 nM	< 100 nM	CC1COc2cc(Cl)ccc2N1C(=O)N1CC2(C1)CN(c1ccccn1)C2 (stereo not shown) [1-60]
≥ 1000 nM	< 100 nM	O=C(N1CC2(C1)CN(c1ccc(F)cn1)C2)N1CCOc2cc(F)ccc21 [1-64]
≥ 1000 nM	< 100 nM	CC1COc2cc(F)ccc2N1C(=O)N1CC2(C1)CN(c1ncccc1F)C2 (stereo not shown) [1-67]
≥ 1000 nM	< 100 nM	COc1ccc(N2CC3(CN(C(=O)N4CCOc5cc(Cl)ccc54)C3)C2)nc1 [1-68]
≥ 1000 nM	< 100 nM	O=C(N1CC2(C1)CN(c1cccc(F)n1)C2)N1CCOc2cc(Cl)ccc21 [1-69]
≥ 1000 nM	< 100 nM	O=C(N1CC2(C1)CN(c1cc(F)ccn1)C2)N1CCOc2cc(Cl)ccc21 [1-70]
≥ 1000 nM	< 100 nM	O=C(N1CC2(C1)CN(c1cccnn1)C2)N1CCOc2cc(Cl)ccc21 [1-71]
	< 100 nM	O=C(N1CC2(C1)CN(c1cccnc1)C2)N1CCOc2cc(Cl)ccc21 [1-72]
≥ 1000 nM	< 100 nM	CC1COc2cc(Cl)ccc2N1C(=O)N1CC2(C1)CN(c1noc3ccccc13)C2 (stereo not shown) [21-1, (6-(benzo[d]isoxazol-3-yl)-2,6-diazaspiro[3.3]heptan-2-yl)(7-chloro-3-methyl-2,3-dihydro-4H-benzo[b][1,4]oxazin-4-yl)methanone]
≥ 1000 nM	< 100 nM	CC1COc2cc(Cl)ccc2N1C(=O)N1CC2(C1)CN(c1ncccc1C#N)C2 (stereo not shown) [21-2]
< 100 nM	< 100 nM	Cc1cncc(N2CC3(CN(C(=O)N4c5ccc(Cl)cc5OCC4C)C3)C2)n1 (stereo not shown) [21-3]
100 to 500 nM	< 100 nM	Cc1cnnc(N2CC3(CN(C(=O)N4c5ccc(Cl)cc5OCC4C)C3)C2)c1 (stereo not shown) [21-4]
100 to 500 nM	< 100 nM	CC1COc2cc(Cl)ccc2N1C(=O)N1CC2(C1)CN(c1ncncc1F)C2 (stereo not shown) [21-5]
≥ 1000 nM	< 100 nM	CC1COc2cc(Cl)ccc2N1C(=O)N1CC2(C1)CN(c1ccncn1)C2 (stereo not shown) [21-6]
100 to 500 nM	< 100 nM	Cc1nccc(N2CC3(CN(C(=O)N4c5ccc(Cl)cc5OCC4C)C3)C2)n1 (stereo not shown) [21-8]
100 to 500 nM	< 100 nM	CCc1cnc(N2CC3(CN(C(=O)N4c5ccc(Cl)cc5OCC4C)C3)C2)nc1 (stereo not shown) [21-9]
100 to 500 nM	< 100 nM	CC1COc2cc(Cl)ccc2N1C(=O)N1CC2(C1)CN(c1nccc(C(F)(F)F)n1)C2 (stereo not shown) [21-10]
500 to 1000 nM	< 100 nM	Cc1cc(N2CC3(CN(C(=O)N4c5ccc(Cl)cc5OCC4C)C3)C2)ncn1 (stereo not shown) [21-11]
